Reference: ChEMBL document CHEMBL5226348, “Recent Progress of Small Molecule Menin-MLL Interaction Inhibitors as Therapeutic Agents for Acute Leukemia” (J Med Chem, 2021)

What was measured:
MV4-11 = assay: Antiproliferative activity against human MV4-11 cells; format: functional
[1] = Oral bioavailability in mouse; format: ADME, organism-based; details: in vivo
[2] = molecular target: T1, Menin/Histone-lysine N-methyltransferase MLL (Homo sapiens, UniProt O00255); assay: Inhibition of human Menin to MLL protein-protein interaction; format: protein assay
T1 sequence (O00255 whole entry): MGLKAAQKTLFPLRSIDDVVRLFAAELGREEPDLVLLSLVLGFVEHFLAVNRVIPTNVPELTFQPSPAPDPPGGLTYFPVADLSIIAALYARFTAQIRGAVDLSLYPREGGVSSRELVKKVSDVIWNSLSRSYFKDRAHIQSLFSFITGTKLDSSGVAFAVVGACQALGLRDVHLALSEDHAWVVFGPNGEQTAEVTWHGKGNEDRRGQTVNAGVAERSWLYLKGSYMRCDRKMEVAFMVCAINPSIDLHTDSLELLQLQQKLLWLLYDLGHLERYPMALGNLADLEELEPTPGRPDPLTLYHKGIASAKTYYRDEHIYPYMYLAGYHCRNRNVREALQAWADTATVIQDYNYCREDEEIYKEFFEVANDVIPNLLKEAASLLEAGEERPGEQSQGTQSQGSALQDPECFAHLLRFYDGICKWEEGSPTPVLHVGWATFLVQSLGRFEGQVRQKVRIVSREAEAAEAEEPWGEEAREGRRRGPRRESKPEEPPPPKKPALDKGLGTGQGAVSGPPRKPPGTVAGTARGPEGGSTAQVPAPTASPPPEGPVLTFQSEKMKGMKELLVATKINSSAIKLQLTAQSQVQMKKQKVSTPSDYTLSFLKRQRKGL
T1 sequence (Q03164 1-2718 partner limits assumed): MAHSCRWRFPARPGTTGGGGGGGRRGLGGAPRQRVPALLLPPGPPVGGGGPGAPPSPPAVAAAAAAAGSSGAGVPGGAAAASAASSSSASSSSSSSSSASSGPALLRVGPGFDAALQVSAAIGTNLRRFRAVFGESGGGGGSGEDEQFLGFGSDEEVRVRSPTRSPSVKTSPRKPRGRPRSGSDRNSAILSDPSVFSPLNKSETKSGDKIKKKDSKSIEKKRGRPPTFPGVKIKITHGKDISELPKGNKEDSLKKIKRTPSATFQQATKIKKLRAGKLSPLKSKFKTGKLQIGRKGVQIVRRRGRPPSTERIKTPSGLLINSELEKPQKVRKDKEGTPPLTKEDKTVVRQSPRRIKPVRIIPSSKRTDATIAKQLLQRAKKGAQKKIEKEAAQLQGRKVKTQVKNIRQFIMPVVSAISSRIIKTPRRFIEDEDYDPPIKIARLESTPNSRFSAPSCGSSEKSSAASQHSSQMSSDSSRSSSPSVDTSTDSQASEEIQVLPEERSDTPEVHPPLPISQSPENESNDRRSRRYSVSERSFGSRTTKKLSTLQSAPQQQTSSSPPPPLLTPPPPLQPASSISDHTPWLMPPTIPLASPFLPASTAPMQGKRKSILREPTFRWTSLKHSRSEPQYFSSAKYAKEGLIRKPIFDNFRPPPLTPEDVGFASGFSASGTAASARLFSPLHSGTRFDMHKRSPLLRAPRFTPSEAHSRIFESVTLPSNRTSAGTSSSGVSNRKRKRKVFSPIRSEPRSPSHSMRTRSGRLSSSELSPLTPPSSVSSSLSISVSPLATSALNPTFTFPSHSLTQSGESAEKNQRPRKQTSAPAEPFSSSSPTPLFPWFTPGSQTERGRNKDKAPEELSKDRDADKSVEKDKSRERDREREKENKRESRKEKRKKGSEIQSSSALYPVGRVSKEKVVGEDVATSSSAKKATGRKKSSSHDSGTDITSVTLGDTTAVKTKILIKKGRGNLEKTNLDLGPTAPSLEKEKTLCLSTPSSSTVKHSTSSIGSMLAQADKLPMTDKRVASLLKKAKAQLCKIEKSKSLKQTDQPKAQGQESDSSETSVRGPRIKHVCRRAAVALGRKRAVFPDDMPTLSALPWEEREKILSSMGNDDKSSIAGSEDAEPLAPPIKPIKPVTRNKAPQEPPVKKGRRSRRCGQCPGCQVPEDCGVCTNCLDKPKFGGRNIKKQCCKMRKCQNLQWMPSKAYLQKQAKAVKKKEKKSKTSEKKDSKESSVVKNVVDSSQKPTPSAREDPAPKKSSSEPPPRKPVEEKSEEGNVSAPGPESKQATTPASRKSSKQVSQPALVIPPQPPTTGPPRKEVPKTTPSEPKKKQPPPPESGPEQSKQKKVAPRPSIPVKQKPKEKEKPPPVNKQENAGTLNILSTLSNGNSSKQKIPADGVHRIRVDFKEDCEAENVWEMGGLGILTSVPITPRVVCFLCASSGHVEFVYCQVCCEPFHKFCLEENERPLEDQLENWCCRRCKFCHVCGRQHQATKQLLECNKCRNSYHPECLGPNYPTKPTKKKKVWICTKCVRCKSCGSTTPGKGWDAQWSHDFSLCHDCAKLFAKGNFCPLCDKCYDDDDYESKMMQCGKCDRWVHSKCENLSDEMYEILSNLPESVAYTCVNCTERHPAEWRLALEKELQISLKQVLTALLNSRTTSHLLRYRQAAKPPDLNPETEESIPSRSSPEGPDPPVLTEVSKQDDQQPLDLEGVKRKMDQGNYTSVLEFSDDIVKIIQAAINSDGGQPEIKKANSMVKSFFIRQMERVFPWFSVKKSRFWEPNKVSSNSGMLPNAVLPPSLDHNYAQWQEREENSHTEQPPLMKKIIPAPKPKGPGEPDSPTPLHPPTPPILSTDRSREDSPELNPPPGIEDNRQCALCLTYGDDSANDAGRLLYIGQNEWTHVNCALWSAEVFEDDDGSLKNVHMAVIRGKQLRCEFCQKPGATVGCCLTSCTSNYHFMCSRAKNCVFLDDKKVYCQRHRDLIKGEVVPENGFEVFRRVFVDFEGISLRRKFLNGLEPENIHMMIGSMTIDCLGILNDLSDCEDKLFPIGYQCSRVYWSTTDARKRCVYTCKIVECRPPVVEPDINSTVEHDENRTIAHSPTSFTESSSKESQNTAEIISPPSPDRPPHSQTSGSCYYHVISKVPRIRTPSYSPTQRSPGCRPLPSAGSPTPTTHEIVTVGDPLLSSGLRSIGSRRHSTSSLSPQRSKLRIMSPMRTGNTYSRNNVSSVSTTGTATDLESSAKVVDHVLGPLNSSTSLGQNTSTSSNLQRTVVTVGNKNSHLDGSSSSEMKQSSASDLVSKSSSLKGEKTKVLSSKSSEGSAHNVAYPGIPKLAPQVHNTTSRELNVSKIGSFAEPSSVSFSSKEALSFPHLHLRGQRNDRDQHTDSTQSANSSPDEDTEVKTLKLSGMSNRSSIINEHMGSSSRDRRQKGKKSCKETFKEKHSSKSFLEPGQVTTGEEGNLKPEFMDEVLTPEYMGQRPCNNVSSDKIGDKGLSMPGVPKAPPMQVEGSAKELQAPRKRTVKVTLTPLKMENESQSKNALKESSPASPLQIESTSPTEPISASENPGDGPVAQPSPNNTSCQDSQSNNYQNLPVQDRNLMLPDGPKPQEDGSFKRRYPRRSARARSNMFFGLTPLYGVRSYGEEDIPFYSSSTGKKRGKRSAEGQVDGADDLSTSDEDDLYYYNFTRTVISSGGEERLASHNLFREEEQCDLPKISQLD
T1 sequence (Q03164 2719-3969 partner limits assumed): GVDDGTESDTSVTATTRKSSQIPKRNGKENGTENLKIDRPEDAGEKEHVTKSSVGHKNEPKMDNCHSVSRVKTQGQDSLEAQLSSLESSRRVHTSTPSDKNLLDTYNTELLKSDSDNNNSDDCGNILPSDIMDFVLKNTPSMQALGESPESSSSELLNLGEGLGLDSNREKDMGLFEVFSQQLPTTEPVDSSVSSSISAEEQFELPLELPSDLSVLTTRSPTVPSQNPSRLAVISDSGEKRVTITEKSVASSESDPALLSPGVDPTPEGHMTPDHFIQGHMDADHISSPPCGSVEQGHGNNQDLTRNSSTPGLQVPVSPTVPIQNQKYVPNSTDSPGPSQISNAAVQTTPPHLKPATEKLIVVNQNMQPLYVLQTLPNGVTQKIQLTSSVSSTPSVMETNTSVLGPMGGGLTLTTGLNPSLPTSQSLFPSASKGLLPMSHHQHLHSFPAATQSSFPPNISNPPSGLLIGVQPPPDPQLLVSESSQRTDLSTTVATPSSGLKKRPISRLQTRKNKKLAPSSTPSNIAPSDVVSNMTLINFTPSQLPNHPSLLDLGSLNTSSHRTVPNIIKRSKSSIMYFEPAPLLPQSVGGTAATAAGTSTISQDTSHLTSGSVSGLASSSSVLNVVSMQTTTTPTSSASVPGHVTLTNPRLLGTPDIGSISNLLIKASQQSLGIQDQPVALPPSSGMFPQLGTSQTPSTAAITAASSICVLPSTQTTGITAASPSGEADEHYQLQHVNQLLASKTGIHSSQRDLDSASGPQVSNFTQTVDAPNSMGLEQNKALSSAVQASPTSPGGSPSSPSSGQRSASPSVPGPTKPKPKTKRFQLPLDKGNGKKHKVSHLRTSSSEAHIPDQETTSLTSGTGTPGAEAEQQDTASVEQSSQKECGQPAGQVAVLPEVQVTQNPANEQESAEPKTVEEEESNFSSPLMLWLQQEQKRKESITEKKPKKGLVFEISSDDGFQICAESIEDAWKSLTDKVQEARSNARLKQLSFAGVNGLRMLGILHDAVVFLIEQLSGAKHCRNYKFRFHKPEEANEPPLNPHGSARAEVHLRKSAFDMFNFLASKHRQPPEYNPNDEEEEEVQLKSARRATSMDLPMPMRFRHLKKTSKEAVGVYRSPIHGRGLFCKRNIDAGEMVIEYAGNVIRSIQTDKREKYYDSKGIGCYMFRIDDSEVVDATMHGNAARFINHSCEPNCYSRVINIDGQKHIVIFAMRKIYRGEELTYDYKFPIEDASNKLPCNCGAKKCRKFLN

MOLM-13 = assay: Antiproliferative activity against human MOLM-13 cells; format: functional
[3] = molecular target: T1, Menin/Histone-lysine N-methyltransferase MLL; assay: Inhibition of Menin to MLL (unknown origin) protein-protein interaction; format: protein assay

Structure (SMILES) | GI50 (MV4-11) | IC50 [2] | GI50 (MOLM-13) | IC50 [3] | other results
Cc1c(CN2CCC(Nc3ncnc4sc(CC(F)(F)F)cc34)CC2)ccc2c1cc(C#N)n2Cc1cn[nH]c1 | – | – | – | – | bioavailability [1]: 73%
Cc1c(CN2CCC(Nc3ncnc4sc(CC(F)(F)F)cc34)CC2)ccc2[nH]c(C#N)cc12 | – | – | – | – | bioavailability [1]: 44%
NCC(CCN1CC=C(c2ccc(Cl)cc2)CC1)(c1ccccc1)C1CCCC1 (stereo not given) | – | 0.83 nM | – | – | –
CC(C)N(C(=O)c1cc(F)ccc1Oc1cncnc1N1CC2(CCN(C[C@H]3CC[C@H](NS(C)(=O)=O)CC3)CC2)C1)C(C)C | 17 nM | – | 13 nM | 40000 nM | –
O=c1cccc2n1C[C@@H]1C[C@H]2CN(CC(O)CSCc2ccccc2)C1 (stereo not given in full) | – | – | – | 40 nM | –
Clc1ccc2c(NCCN3CCN(CCCCCCCN4CCN(CCNc5ccnc6cc(Cl)ccc56)CC4)CC3)ccnc2c1 | – | 4.7 nM | – | – | –
C[C@@]12CN(CC(O)CCCc3ccccc3)C[C@@](C)(C1)c1cccc(=O)n1C2 (stereo not given in full) | – | – | – | 1 nM | –

Continued, in another order:

GI50 (MV4-11) | IC50 [2] | GI50 (MOLM-13) | Structure (SMILES) | IC50 [3] | other results
9500 nM | – | – | CCCc1cc2c(N3CCN(C4=NCC(C)(C)S4)CC3)ncnc2s1 | – | –
2.7 nM | – | 15.4 nM | COC(=O)N[C@H]1CCC[C@@H]1[C@](C#N)(c1cccc(F)c1)C1CCN(CC2CN(c3ccc(S(=O)(=O)C4CN(C(=O)/C=C/CN(C)C)C4)cc3)C2)CC1 | – | –
7.6 nM | 0.5 nM | 12.5 nM | CNc1nc(NC2CCN(Cc3ccc4c(cc(C#N)n4CC45CC(NC=O)(C4)C5)c3C)CC2)c2cc(CC(F)(F)F)sc2n1 | – | –
